≈ marks a conversion by molar mass, not a printed value. Where two headings read alike, the source gives them in different places.
Tests used:
MRSA ATCC 33591 = test: Broth microdilution MIC determination; format: cell-based; details: Staphylococcus aureus, Table 1, read-out: Antimicrobial Activity MIC
Procedure: (§1) General Information. Methicillin-resistant Staphylococcus aureus (MRSA) strains were obtained from the Laboratory of Professor Christian Melander (NCSU) ATCC (33591, BAA 44, BAA 1685, BAA 1770, BAA 43 300) and colonies were grown on solid media as instructed. Mueller-Hinton broth (MHB, 211443-BD), tryptic soy broth (TSB, Remel: R455052) and D-glucose (CAS: 492-62-6) were purchased from Fisher Scientific. Tryptic soy agar (TSA, cat. #22091) and Linezolid (cat. # P70014) were purchased from Sigma-Aldrich. Bacteria for biofilm inhibition and dispersion assays were cultured overnight in TSBG (tryptic soy broth with 0.5% glucose supplement). All assays were run in duplicate and repeated at least two separate times for MIC assays and at least four separate times for biofilm inhibition and dispersion assays. All compounds were dissolved molecular biology grade DMSO as 100 mM stock solutions and further diluted to 10 and 1 mM stock solutions as needed. Optical densities were measured using a Thermo Scientific Genesys 20 spectrophotometer. Data for biofilm inhibition and dispersion assays was collected using a BioTek ELx808 Microplate Reader. All graphs were generated and analyzed using GraphPad Prism 7.
Broth microdilution protocol for minimum inhibition concentration (MIC) determination. Studies were performed using the standard method prescribed by the Clinical and Laboratory Standards Institute (CLSI) M07-A8, Vol. 29 (2), which is hereby incorporated herein by reference. Briefly, fresh Mueller-Hinton broth (MHB) ˜3 ml, was inoculated (5×10^5 CFU mL^−1) with MRSA (ATCC 33591) methicillin-resistant Staphylococcus aureus. The resulting bacterial suspension was aliquoted (1 mL) into culture tubes and test compound (10 mM DMSO stock solution) was added to reach the final concentration of the interest. Bacteria not treated with the antimicrobial compound served as the control. Rows 2-12 of a 96-well microtiter plate were filled with remaining bacterial subcultures. The samples containing test compound were aliquoted (200 μL) into the first row wells of the microtiter plate (2 wells per compound). Row 1 wells were mixed 6-8 times and 100 μL was transferred down to row 2. Row 2 wells were mixed 6-8 times, followed by a 100 μL transfer from row 2 down to row 3. The rest of the rows of the plate were serially diluted in similar fashion. The plate was covered with sealing tape for 96-well plates (ThermoFisher) and incubated under stationary conditions at 37° C. A duplicate of the plate was prepared.

MRSA ATCC BAA-44 [1] = test: Biofilm dispersion assay (crystal violet, pre-formed biofilm); format: cell-based, Staphylococcus aureus; details: Staphylococcus aureus; for % dispersion of pre-formed biofilm at 5 µM: MRSA ATCC BAA 44; for IC50: MRSA ATCC BAA-44
Procedure: as §1
Biofilm Dispersion Assay. Studies were performed using the standard method described in J. J. Richards, T. E. Ballard and C. Melander, Org Biomol Chem, 2008, 6, 1356-1363. Briefly, dispersion assays were performed by taking an overnight culture of bacterial strain and subculturing it at an OD600 of 0.01 into the necessary growth liquid medium. The resulting bacterial suspension was aliquoted (100 μL) into the wells of a 96-well PVC microtiter plate. Plates were then wrapped in GLAD Press n' Seal followed by an incubation under stationary conditions at an ambient temperature. After 24 hours, the media was discarded from the wells and the plates were washed thoroughly with tap water. Predetermined concentrations of the test compound were then made in the same medium used to initially grow the biofilms and then aliquoted (100 μL) into the wells of the 96-well PVC microtiter plate with the established biofilms. Plates were then wrapped in GLAD Press n'Seal and incubated under stationary conditions at 37° C. After 24 hours, the media was discarded from the wells and the plates were washed thoroughly with tap water. Plates were then stained with 100 μL of 0.1% solution of crystal violet (CV) and then incubated at room temperature for 30 minutes. Plates were then washed with tap water again and the remaining stain was solubilized with 200 μL of 95% ethanol. Biofilm dispersion was quantitated by measuring the OD540 for each well by transferring 125 μL of the solubilized CV stain into a polystyrene microtiter dish for analysis. Biofilm inhibition was quantified by measuring the OD540 of each well and calculated as a percentage of the control (no compound), a negative control lane wherein no biofilm was formed served as a background and was subtracted out.
(§2) Percent dispersion was then plotted against concentration in Prism 7. Each of the four experiments were plotted separately and analyzed by a normalized nonlinear regression. The IC50 values reported represent an arithmetic mean of the four IC50 values. Biofilm data represent four separate experiments, with each experiment performed in duplicate (average of 8 data points for each concentration tested, unless otherwise noted)

MRSA ATCC BAA-44 [2] = test: as above; format: cell-based; details: Staphylococcus aureus, Table 2
MRSA ATCC BAA-44 [3] = test: Biofilm inhibition assay (crystal violet); format: cell-based, Staphylococcus aureus; details: for inhibition at 5 µM / IC50 / inhibition at 40 µM: Staphylococcus aureus; for IC50: MRSA ATCC BAA-44; for inhibition at 40 µM: Table 2; for fold reduction in biofilm inhibition activity: 7 versus 4, 8 versus 1
Procedure: as §1
Biofilm Inhibition Assay. Studies were performed using the standard method described in S. A. Rogers and C. Melander, Angew Chem Int Ed, 2008, 47, 5229-5231. Briefly, biofilm inhibition assays were performed by taking an overnight culture of bacterial strain and subculturing it at an OD600 of 0.01 into the necessary growth liquid medium (LB for A. baumannii, LBNS for P. aeruginosa, Stainer-Scholte medium that was supplemented with 10 μL/mL of 100× nutrient complex for B. bronchiseptica and TSB w/0.3% glucose for S. aureus) for the strain. The compound being tested was then added at a predetermined concentration and then aliquoted (100 μL) into the wells of a 96-well PVC microtiter plate (wells not used for samples are filled with 100 μL of de-ionized water). Plates were then wrapped in GLAD Press n' Seal and incubated under stationary conditions at 37° C. After 24 hours, the media was discarded from the wells and the plates were washed thoroughly with tap water. Plates were then stained with 100 μL of 0.1% solution of crystal violet (CV) and then incubated at an ambient temperature for 30 minutes. Sample plates were then washed with tap water again and the remaining stain was solubilized with 200 μL of 95% ethanol. Biofilm inhibition was quantitated by measuring the OD540 for each well by transferring 125 μL of the solubilized CV stain into a polystyrene microtiter dish for analysis. Biofilm inhibition was quantified by measuring the OD540 of each well and calculated as a percentage of the control (no compound); a negative control lane wherein no biofilm was formed served as a background and was subtracted out.
as §2, with “inhibition” for “dispersion”

MRSA ATCC BAA-44 [4] = test: Broth microdilution MIC determination; format: cell-based, Staphylococcus aureus; details: for MIC: Staphylococcus aureus
red blood cells = test: Lysis of red blood cells; format: cell-based; details: 100 μM
[5] = MRSA ATCC BAA 44, Table 2, read-out: MIC
[6] = MRSA ATCC BAA-44, Table 1, read-out: Antimicrobial Activity MIC

Row | SMILES | MIC (MRSA ATCC 33591) | IC50 (MRSA ATCC BAA-44 [1]) | IC50 (MRSA ATCC BAA-44 [3]) | MIC (MRSA ATCC BAA-44 [4]; [5]) | MIC (MRSA ATCC BAA-44 [4]; [6]) | red blood cells lysed (red blood cells) | % dispersion of pre-formed biofilm at 5 µM (MRSA ATCC BAA-44 [1]) | inhibition at 40 µM (MRSA ATCC BAA-44 [2]) | inhibition at 5 µM (MRSA ATCC BAA-44 [3]; 5 μM, MRSA ATCC BAA 44) | inhibition at 40 µM (MRSA ATCC BAA-44 [3]; MRSA ATCC BAA 44) | dose dependence of biofilm inhibition (in words) (MRSA ATCC BAA-44 [3]; relative to MIC) | antimicrobial activity (in words) (MRSA ATCC BAA-44 [4]; MRSA ATCC BAA-44) | fold reduction in biofilm inhibition activity (MRSA ATCC BAA-44 [3]) | fold reduction in antimicrobial activity (MRSA ATCC BAA-44 [4]; 7 compared with 4) | biofilm activity (in words) (MRSA ATCC BAA-44 [3]; even at 40 μM) | % Biofilm Inhibition (5 μM) (MRSA ATCC BAA-44 [3]; 5 μM, MRSA ATCC BAA 44)
1 | CCCCCCCCC(Cl)(Cl)C1NC(=O)/C(=C/c2ccc(C(F)(F)F)cc2)O1 (stereo not drawn) [Compound 3, (Z)-2-(1,1-dichlorononyl)-5-(4-(trifluoromethyl)benzylidene)oxazolidin-4-one] | > 128 µg/mL | 6.6 µM | 1.7 µM | > 128 µg/mL | > 128 µg/mL | 7% | 19% | 19% | 68% | 75% | dose-dependent biofilm inhibition at concentrations well below their MIC | completely abolished | – | – | – | –
2 | CC(Cl)(Cl)C1NC(=O)/C(=C/c2ccc(C(F)(F)F)cc2)O1 (stereo not drawn) [Compound 4, (Z)-2-(1,1-dichloroethyl)-5-(4-(trifluoromethyl)benzylidene)oxazolidin-4-one] | 32 µg/mL (≈ 94.1 µM) | 5 µM | 3.6 µM | 32 µg/mL (≈ 94.1 µM) | 32 µg/mL (≈ 94.1 µM) | – | 50% | – | 55% | – | – | – | – | – | – | –
3 | C#CCC(Cl)(Cl)C1NC(=O)/C(=C/c2ccc(C(F)(F)F)cc2)O1 (stereo not drawn) [Compound 5, (Z)-2-(1,1-dichlorobut-3-yn-1-yl)-5-(4-(trifluoromethyl)benzylidene)oxazolidin-4-one] | 16 µg/mL (≈ 43.9 µM) | 6 µM | 1.9 µM | 16 µg/mL (≈ 43.9 µM) | 16 µg/mL (≈ 43.9 µM) | – | 63% | – | 64% | – | – | – | – | – | – | –
4 | CCCCC(Cl)(Cl)C1NC(=O)/C(=C/c2ccccc2)O1 (stereo not drawn) [Compound 6, (Z)-5-benzylidene-2-(1,1-dichloropentyl)oxazolidin-4-one] | 64 µg/mL (≈ 204 µM) | 5.3 µM | 3.2 µM | 64 µg/mL (≈ 204 µM) | 64 µg/mL (≈ 204 µM) | – | 14% | 26% | 51% | – | – | – | – | – | – | –

Continued, in another order:

Row | MIC (MRSA ATCC 33591) | IC50 (MRSA ATCC BAA-44 [1]) | IC50 (MRSA ATCC BAA-44 [3]) | MIC (MRSA ATCC BAA-44 [4]; [5]) | MIC (MRSA ATCC BAA-44 [4]; [6]) | red blood cells lysed (red blood cells) | SMILES | % dispersion of pre-formed biofilm at 5 µM (MRSA ATCC BAA-44 [1]) | inhibition at 40 µM (MRSA ATCC BAA-44 [2]) | inhibition at 5 µM (MRSA ATCC BAA-44 [3]; 5 μM, MRSA ATCC BAA 44) | inhibition at 40 µM (MRSA ATCC BAA-44 [3]; MRSA ATCC BAA 44) | dose dependence of biofilm inhibition (in words) (MRSA ATCC BAA-44 [3]; relative to MIC) | antimicrobial activity (in words) (MRSA ATCC BAA-44 [4]; MRSA ATCC BAA-44) | fold reduction in biofilm inhibition activity (MRSA ATCC BAA-44 [3]) | fold reduction in antimicrobial activity (MRSA ATCC BAA-44 [4]; 7 compared with 4) | biofilm activity (in words) (MRSA ATCC BAA-44 [3]; even at 40 μM) | % Biofilm Inhibition (5 μM) (MRSA ATCC BAA-44 [3]; 5 μM, MRSA ATCC BAA 44)
5 | 128 µg/mL (≈ 428 µM) | 9.2 µM | 7.3 µM | 128 µg/mL (≈ 428 µM) | 128 µg/mL (≈ 428 µM) | – | CC(C)(C)C1NC(=O)/C(=C/c2ccc(C(F)(F)F)cc2)O1 (stereo not drawn) [Compound 7, (Z)-2-(tert-butyl)-5-(4-(trifluoromethyl)benzylidene)oxazolidin-4-one] | 5.7% | 31% | 31% | 51% | – | – | 3 fold | 4 fold | – | –
6 | 16 µg/mL (≈ 51.1 µM) | – | 7.3 µM | 64 µg/mL (≈ 204 µM) | 16 µg/mL (≈ 51.1 µM) | – | CCCCCC1NC(=O)/C(=C/c2ccc(C(F)(F)F)cc2)O1 (stereo not drawn) [Compound 8, (Z)-2-pentyl-5-(4-(trifluoromethyl)benzylidene)oxazolidin-4-one] | – | – | 17% | 53% | – | – | 5 fold | – | – | –
7 | > 128 µg/mL | > 20 µM | > 20 µM | > 128 µg/mL | > 128 µg/mL | – | CCCCCCNC(=O)C(=O)Cc1ccc(C(F)(F)F)cc1 [Compound 9, N-hexyl-2-oxo-3-(4-(trifluoromethyl)phenyl)propanamide] | -24% | -6.5% | 24% | 41% | – | no antimicrobial activity | – | – | only modest biofilm activity | –
8 | – | – | – | > 128 µg/mL | – | – | CCCCC(Cl)(Cl)C1NC(=O)/C(=C/c2ccc(OC)cc2)O1 (stereo not drawn) [Compound 11, (Z)-2-(1,1-di-Chloropentyl)-5-(4-methoxybenzylidene)oxazolidin-4-one] | 49% | 58% | < 50% | 52% | – | – | – | – | – | 39%

Reference: US10822315B2, “5-benzylidene-4-oxazolidinones” (NORTH CAROLINA STATE UNIVERSITY, priority 2016, dated 2020)
